Test results: patent US7495018B2, “Substituted 1,3-thiazole compounds, their production and use” (Takeda Pharmaceutical Company Limited, priority 2000, dated 2009)

How the values were obtained:
[1] = tested on: TNF-α production in THP-1 cells; assay: Inhibitory activity of TNF-α production in LPS-stimulated THP-1 cells; format: cell-based; details: Homo sapiens, LPS 5 μg/mL, 4 hours, TNF-α by ELISA, read-out: IC50 (concentration inhibiting 50% of TNF-α production)
Experimental: Measurement of Inhibitory Activity of TNF-α Production
THP-1 cells cultured in a PRMI 1640 medium (Life Technologies, Inc., USA) containing 1% inactivated fetal bovine serum (Life Technologies, Inc.) and 10 mM HEPES (pH 7.5) were inoculated on a 96 well plate to give 1×10^5 cells/well, then, 1 μL of a sample compound dissolved in DMSO was added. After incubation for 1 hour at 37° C. in a CO2 incubator, LPS (Wako Pure Chemical Industries Ltd.) was added to give a final concentration of 5 μg/mL. After incubation for 4 hours at 37° C. in a CO2 incubator, the supernatant was obtained by centrifugal separation. The TNF-α concentration in the supernatant was measured by ELISA (R&D Systems, Quantikine Kit). The concentration (IC50 value) of a sample compound necessary for inhibiting 50% of TNF-α production was calculated by PRISM 2.01 (GraphPad Software).

human p38 MAP kinase = molecular target: T1, human p38 MAP kinase (Homo sapiens, UniProt Q16539); assay: p38 MAP kinase inhibition, 32P incorporation into Myelin Basic Protein; format: biochemical; details: active type p38 MAP kinase, Myelin Basic Protein substrate, 60 minutes at 30° C.; read-out: IC50 (concentration inhibiting 50% of 32P incorporation into the acid insoluble fraction)
T1 construct: FLAG (N); made in house; host or cells: Sf-21 insect cells, co-infected with baculoviruses BAC-HP38 and BAC-caMKK3
Experimental: (1) Cloning of Human p38 MAP Kinase Gene and Preparation of Recombinant Baculovirus
(3) Preparation of Active Type p38 MAP Kinase
Sf-21 cells were inoculated on 100 mL Sf-900II SF medium (GIBCOBRL) to give 1×10^6 cells/mL, then, cultured for 24 hours at 27° C. Each 0.2 mL of virus stocks BAC-HP38 and BAC-caMKK3 of the recombinant baculovirus were added, then, cultured for further 48 hours. Cells were separated from the culture solution by centrifugal separation (3000 rpm, 10 min.), then, washed with PBS twice. The cells were suspended in 10 mL of Lysis buffer (25 mM HEPES (pH7.5), 1% TritonX, 130 mM NaCl, 1 mM EDTA, 1 mM DTT, 25 mM β-glycerophosphate, […], 1 mM APMSF, 1 mM Sodium orthovanadate), then, treatment by Homogenizer (POLYTRON) for 2 minutes at 20000 rpm was performed twice to lyse the cells. […]
(4) To 37.5 μL of a reaction solution (25 mM HEPES (pH 7.5), 10 mM Magnesium Acetate) containing 260 ng of active type p38 MAP kinase and 1 μg of Myelin Basic Protein was added 2.5 μL of a sample compound dissolved in DMSO, then, the mixture was kept at 30° C. for 5 minutes. […] After drying for 60 minutes at 45° C., 40 μL of Microscint 0 (Packard Japan) was added, and radiation activity was measured by Top Counter (Packard Japan). […]

T1 sequence (Q16539 whole entry): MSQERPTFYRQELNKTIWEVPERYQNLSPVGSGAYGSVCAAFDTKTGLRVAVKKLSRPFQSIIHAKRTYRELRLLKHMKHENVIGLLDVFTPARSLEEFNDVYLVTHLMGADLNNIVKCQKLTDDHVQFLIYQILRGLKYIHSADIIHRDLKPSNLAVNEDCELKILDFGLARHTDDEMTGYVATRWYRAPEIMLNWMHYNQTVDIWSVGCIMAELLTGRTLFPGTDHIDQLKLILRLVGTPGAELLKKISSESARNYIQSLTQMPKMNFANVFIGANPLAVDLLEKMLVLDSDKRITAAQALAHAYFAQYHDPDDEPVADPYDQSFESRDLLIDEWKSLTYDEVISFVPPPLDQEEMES

- IC50 [1]: 82 nM
- IC50 (human p38 MAP kinase): 17 nM
- melting point: 176 to 177 °C
Compound: Cc1cccc(-c2nc(N(C)C(=O)c3ccc(C)nc3)sc2-c2ccnc(NC3CCCC3)c2)c1 [Example 46-4]
